Columns and labels:
BTK = BTK (Homo sapiens, UniProt Q06187); experiment: Selectivity profile (123 kinase panel); type: biochemical
KHS = KHS (Homo sapiens, UniProt Q9Y4K4); experiment: Selectivity profile (123 kinase panel); type: biochemical
CK1γ1 = CK1γ1 (Homo sapiens, UniProt Q9HCP0); experiment: Selectivity profile (123 kinase panel); type: biochemical
CSF1R = CSF1R (Homo sapiens, UniProt P07333); experiment: Selectivity profile (123 kinase panel); type: biochemical
JNK3 = JNK3 (Homo sapiens, UniProt P53779); experiment: Selectivity profile (123 kinase panel); type: biochemical
MRCKβ = MRCKβ (Homo sapiens, UniProt Q9Y5S2); experiment: Selectivity profile (123 kinase panel); type: biochemical
MST3 = MST3 (Homo sapiens, UniProt Q9Y6E0); experiment: Selectivity profile (123 kinase panel); type: biochemical
FGFR2 = FGFR2 (Homo sapiens, UniProt P21802); experiment: Selectivity profile (123 kinase panel); type: biochemical
BRAF = BRAF (Homo sapiens, UniProt P15056); experiment: Selectivity profile (123 kinase panel); type: biochemical
PARP13 = PARP13 (Homo sapiens, UniProt Q7Z2W4); experiment: Selectivity profile (other isoforms of PARP and NRP family); type: biochemical
AXL = AXL (Homo sapiens, UniProt P30530); experiment: Selectivity profile (123 kinase panel); type: biochemical
BRK = BRK (Homo sapiens, UniProt Q13882); experiment: Selectivity profile (123 kinase panel); type: biochemical
AKT1 = AKT1 (Homo sapiens, UniProt P31749); experiment: Selectivity profile (123 kinase panel); type: biochemical
PARP15 = PARP15 (Homo sapiens, UniProt Q460N3); experiment: Selectivity profile (other isoforms of PARP and NRP family); type: biochemical
FLT3 = FLT3 (Homo sapiens, UniProt P36888); experiment: Selectivity profile (123 kinase panel); type: biochemical
PARP1 = target: T1, PARP1 (Homo sapiens, UniProt P09874); experiment: In vitro PARP1 inhibition assay (chemiluminescence); type: biochemical; conditions: PARP1 enzyme 0.6 units/well
T1 construct: purchased Abcam
Method: In each well, 50 μL of 1 × PARP1 buffer was added and incubated for 30 min at room temperature. The 1 × PARP1 buffer was removed from the wells, and then 25 μL of 1 × PARP1 cocktail was added to each well along with varying doses of compounds and PARP1 enzyme (0.6 units/well). Incubated and washed twice with PBS and 0.1% Triton X-100. Then added 50 μL Strep-HRP and washed twice. Equal volumes (100 μL) of PeroxyGlow A and B were added to each well and immediately take chemiluminescent readings. Data were analyzed by GraphPad Prism 9 software based on chemiluminescence readings of chemiluminescent substrates of Strep-HRP in each well. The IC50 value was were calculated by nonlinear curve fitting in GraphPad Prism 9.

PARP3 = PARP3 (Homo sapiens, UniProt Q9Y6F1); experiment: Selectivity profile (other isoforms of PARP and NRP family); type: biochemical
FGFR1 = FGFR1 (Homo sapiens, UniProt P11362); experiment: Selectivity profile (123 kinase panel); type: biochemical
CLK4 = CLK4 (Homo sapiens, UniProt Q9HAZ1); experiment: Selectivity profile (123 kinase panel); type: biochemical
MST1 = MST1 (Homo sapiens, UniProt Q13043); experiment: Selectivity profile (123 kinase panel); type: biochemical
MUSK = MUSK (Homo sapiens, UniProt O15146); experiment: Selectivity profile (123 kinase panel); type: biochemical
AurA = AurA (Homo sapiens, UniProt O14965); experiment: Selectivity profile (123 kinase panel); type: biochemical
MER = MER (Homo sapiens, UniProt Q12866); experiment: Selectivity profile (123 kinase panel); type: biochemical
PARP8 = PARP8 (Homo sapiens, UniProt Q8N3A8); experiment: Selectivity profile (other isoforms of PARP and NRP family); type: biochemical
NRP2 = NRP2 (Homo sapiens, UniProt O60462); experiment: as above; type: biochemical
KDR = KDR (Homo sapiens, UniProt P35968); experiment: Selectivity profile (123 kinase panel); type: biochemical
FES = FES (Homo sapiens, UniProt P07332); experiment: Selectivity profile (123 kinase panel); type: biochemical
EPHA5 = EPHA5 (Homo sapiens, UniProt P54756); experiment: Selectivity profile (123 kinase panel); type: biochemical
EGFR = EGFR (Homo sapiens, UniProt P00533); experiment: Selectivity profile (123 kinase panel); type: biochemical
[1] = In vivo pharmacokinetic studies; parameters: species or system SD rats; conditions: Sprague-Dawley (SD), rat, plasma, po, 10 mg/kg
Method: Blood samples (0.25 mL) were collected at 0.25, 0.5, 1, 2, 4, 8, 16, and 24 h after administration and centrifuged to obtain the plasma fraction. In a 96-well plate, the plasma sample (50 μL) was transferred, and the internal standard methanol/acetonitrile (1:1, v/v) solution (200 μL) was added. After vortexing for 5 min, the mixture was centrifuged (12,000 rpm, 5 min) and the supernatant was obtained (60.0 μL). Liquid chromatography and tandem mass spectrometry (LC-MS/MS) system was used to study pharmacokinetics. The data were processed by Phoenix.

Erk7 = Erk7 (Homo sapiens, UniProt Q8TD08); experiment: Selectivity profile (123 kinase panel); type: biochemical
NuaK1 = NuaK1 (Homo sapiens, UniProt O60285); experiment: Selectivity profile (123 kinase panel); type: biochemical
EPHB3 = EPHB3 (Homo sapiens, UniProt P54753); experiment: Selectivity profile (123 kinase panel); type: biochemical
DDR1 = DDR1 (Homo sapiens, UniProt Q08345); experiment: Selectivity profile (123 kinase panel); type: biochemical
MET = MET (Homo sapiens, UniProt P08581); experiment: Selectivity profile (123 kinase panel); type: biochemical

PARP15, sequence (Q460N3 whole entry, canonical isoform): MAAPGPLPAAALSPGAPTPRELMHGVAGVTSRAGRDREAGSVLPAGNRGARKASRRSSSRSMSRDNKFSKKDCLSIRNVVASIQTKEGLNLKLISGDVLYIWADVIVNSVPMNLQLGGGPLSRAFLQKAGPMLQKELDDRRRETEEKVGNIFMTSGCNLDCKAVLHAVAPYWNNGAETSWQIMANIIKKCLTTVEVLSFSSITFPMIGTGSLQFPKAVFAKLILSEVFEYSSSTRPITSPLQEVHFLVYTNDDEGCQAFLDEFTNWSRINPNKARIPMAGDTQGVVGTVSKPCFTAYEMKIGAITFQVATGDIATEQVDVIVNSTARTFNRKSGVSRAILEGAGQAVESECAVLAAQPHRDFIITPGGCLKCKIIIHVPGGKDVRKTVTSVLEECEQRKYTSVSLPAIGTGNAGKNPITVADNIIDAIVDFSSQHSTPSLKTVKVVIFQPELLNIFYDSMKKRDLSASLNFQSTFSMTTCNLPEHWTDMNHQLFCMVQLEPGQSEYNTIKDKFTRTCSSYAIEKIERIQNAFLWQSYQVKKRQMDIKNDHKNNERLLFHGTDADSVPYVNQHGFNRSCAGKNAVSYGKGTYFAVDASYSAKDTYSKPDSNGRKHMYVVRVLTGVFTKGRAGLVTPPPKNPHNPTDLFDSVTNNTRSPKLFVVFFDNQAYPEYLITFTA
MST3, sequence (Q9Y6E0 whole entry): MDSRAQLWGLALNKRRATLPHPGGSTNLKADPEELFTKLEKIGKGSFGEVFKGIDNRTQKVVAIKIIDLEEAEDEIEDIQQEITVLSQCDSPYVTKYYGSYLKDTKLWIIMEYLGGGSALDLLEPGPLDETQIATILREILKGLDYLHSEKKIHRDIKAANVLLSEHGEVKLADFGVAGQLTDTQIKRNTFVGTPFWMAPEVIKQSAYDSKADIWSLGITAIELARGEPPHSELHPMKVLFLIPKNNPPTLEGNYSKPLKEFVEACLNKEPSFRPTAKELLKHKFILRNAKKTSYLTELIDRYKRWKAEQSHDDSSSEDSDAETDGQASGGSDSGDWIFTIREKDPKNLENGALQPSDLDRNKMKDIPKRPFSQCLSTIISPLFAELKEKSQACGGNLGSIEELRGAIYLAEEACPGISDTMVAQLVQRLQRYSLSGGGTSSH
BRAF, sequence (P15056 whole entry, canonical isoform): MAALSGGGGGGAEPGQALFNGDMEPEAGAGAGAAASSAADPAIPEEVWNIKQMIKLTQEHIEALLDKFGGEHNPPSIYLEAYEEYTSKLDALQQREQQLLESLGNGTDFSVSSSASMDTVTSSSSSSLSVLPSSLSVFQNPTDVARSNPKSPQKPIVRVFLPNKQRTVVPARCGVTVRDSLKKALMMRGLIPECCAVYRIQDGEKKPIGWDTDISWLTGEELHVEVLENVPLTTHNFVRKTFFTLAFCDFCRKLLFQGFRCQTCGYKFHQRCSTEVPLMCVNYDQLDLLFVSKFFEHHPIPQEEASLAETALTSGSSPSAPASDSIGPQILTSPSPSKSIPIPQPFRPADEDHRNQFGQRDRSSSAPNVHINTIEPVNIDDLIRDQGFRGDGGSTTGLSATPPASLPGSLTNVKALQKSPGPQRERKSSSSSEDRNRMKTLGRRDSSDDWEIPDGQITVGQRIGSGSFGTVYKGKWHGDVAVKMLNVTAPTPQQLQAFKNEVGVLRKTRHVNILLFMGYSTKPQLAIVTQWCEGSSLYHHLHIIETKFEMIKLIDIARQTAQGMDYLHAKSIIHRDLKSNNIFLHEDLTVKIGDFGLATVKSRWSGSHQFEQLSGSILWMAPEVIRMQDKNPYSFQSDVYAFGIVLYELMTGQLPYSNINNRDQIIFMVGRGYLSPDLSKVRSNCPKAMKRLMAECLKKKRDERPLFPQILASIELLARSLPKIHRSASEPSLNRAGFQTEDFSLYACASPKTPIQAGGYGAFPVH
FLT3, sequence (P36888 27-993, species assumed): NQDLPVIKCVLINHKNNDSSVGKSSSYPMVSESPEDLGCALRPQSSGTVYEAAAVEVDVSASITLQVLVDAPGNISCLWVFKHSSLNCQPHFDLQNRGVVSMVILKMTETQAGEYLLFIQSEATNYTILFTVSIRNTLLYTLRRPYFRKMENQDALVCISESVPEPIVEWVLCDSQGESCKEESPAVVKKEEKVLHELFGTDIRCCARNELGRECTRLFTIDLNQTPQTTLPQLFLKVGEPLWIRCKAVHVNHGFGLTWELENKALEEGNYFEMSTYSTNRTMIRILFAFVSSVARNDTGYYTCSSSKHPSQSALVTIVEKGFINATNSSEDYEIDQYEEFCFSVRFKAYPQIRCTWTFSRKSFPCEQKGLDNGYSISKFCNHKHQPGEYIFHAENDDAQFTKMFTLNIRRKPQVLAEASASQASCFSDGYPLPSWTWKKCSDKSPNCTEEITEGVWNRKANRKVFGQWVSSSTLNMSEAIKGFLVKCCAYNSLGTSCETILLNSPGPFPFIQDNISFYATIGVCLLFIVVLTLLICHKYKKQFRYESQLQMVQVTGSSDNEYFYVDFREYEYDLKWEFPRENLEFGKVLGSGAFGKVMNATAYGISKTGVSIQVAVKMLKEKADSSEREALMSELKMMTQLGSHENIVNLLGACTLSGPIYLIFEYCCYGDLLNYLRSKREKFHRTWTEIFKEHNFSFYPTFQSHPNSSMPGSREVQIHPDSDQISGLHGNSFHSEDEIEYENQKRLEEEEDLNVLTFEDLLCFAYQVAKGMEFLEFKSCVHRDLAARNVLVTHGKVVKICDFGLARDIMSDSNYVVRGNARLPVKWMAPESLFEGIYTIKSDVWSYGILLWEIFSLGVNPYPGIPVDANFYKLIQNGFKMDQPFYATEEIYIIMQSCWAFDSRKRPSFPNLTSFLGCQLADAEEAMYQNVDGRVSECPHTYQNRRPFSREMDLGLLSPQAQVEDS
T1 sequence (P09874 whole entry): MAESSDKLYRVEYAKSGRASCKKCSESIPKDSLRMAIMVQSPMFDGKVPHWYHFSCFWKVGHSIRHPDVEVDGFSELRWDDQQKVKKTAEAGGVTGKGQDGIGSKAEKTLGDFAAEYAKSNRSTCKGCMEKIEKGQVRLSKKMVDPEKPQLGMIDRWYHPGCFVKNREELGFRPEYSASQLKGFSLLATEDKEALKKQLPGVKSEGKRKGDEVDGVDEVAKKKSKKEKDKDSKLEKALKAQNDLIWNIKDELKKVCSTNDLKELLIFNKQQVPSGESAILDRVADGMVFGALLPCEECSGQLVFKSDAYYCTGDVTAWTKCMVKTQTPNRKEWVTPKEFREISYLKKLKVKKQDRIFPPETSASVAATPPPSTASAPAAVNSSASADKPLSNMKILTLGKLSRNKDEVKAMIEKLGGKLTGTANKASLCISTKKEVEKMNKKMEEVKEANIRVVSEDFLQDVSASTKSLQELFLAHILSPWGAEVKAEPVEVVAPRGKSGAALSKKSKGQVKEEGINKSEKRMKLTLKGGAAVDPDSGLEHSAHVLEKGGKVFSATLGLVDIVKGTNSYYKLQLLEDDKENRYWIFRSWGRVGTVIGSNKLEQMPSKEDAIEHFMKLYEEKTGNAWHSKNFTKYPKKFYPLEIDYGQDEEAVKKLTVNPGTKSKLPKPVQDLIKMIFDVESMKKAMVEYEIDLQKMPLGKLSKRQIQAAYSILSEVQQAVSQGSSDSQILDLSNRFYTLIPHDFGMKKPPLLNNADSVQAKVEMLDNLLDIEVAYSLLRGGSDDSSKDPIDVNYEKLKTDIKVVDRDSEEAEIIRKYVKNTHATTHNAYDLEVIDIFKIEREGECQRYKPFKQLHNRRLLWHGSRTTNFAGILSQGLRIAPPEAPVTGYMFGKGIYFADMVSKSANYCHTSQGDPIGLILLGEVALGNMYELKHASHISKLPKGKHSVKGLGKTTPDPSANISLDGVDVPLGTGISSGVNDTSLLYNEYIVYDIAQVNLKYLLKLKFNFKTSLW
KHS, sequence (Q9Y4K4 whole entry): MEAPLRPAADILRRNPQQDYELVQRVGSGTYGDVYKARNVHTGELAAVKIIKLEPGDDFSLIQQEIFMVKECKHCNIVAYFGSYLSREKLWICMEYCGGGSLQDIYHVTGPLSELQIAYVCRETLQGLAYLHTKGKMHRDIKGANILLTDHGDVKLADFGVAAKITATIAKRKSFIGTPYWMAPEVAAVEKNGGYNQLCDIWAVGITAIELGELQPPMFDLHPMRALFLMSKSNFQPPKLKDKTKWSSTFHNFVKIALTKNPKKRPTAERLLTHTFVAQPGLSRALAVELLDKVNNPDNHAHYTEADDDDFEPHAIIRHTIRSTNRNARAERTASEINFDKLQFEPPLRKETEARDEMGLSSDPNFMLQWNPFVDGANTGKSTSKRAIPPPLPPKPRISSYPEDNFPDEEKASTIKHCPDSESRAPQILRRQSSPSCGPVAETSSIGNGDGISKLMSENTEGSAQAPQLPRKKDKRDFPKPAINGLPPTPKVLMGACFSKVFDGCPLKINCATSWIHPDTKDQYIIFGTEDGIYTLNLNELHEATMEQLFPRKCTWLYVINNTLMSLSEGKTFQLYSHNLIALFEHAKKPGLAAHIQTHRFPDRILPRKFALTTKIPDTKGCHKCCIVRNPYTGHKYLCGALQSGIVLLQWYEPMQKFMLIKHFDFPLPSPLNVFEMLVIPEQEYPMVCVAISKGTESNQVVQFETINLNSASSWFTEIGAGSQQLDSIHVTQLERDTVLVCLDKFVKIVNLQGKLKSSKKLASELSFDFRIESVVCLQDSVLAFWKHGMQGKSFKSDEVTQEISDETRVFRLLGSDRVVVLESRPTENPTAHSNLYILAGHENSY

Compound: NC(N)=NCCC[C@H](NCN1CCN(C(=O)c2cc(Cc3n[nH]c(=O)c4ccccc34)ccc2F)CC1)C(=O)O [PPNR-4]
- IC50 (BTK): > 10 µM
- IC50 (KHS): > 10 µM
- IC50 (CK1γ1): > 10 µM
- IC50 (CSF1R): > 10 µM
- IC50 (JNK3): > 10 µM
- IC50 (MRCKβ): > 10 µM
- IC50 (MST3): > 10 µM
- IC50 (FGFR2): > 10 µM
- IC50 (BRAF): > 10 µM
- IC50 (PARP13): > 10 µM
- IC50 (AXL): > 10 µM
- IC50 (BRK): > 10 µM
- IC50 (AKT1): > 10 µM
- IC50 (PARP15): > 10 µM
- IC50 (FLT3): > 10 µM
- IC50 (PARP1): 0.00771 ± 0.00039 µM
- IC50 (PARP3): > 10 µM
- IC50 (FGFR1): > 10 µM
- IC50 (CLK4): > 10 µM
- IC50 (MST1): > 10 µM
- IC50 (MUSK): > 10 µM
- IC50 (AurA): > 10 µM
- IC50 (MER): > 10 µM
- IC50 (PARP8): > 10 µM
- IC50 (NRP2): > 10 µM
- IC50 (KDR): > 10 µM
- IC50 (FES): > 10 µM
- IC50 (EPHA5): > 10 µM
- IC50 (EGFR): > 10 µM
- bioavailability [1]: 66.5%
- AUC ([1]; SD rats, p.o): 8020 ng·h/mL
- Cmax ([1]; SD rats, p.o): 812 ng/mL
- half-life ([1]; SD rats, p.o): 2.71 h
- IC50 (Erk7): > 10 µM
- IC50 (NuaK1): > 10 µM
- IC50 (EPHB3): > 10 µM
- IC50 (DDR1): > 10 µM
- IC50 (MET): > 10 µM

Reference: publication PMC11637875, “Discovery of novel PARP1/NRP1 dual-targeting inhibitors with strong antitumor potency” (Frontiers in Pharmacology, 2024)
